Marks after values point to notes of the source that are not given here.
Key:
rat cortex = assay: Effect of test compound on oxygen tension (pO₂) of rat cortex; format: in vivo; conditions: for Increase in pO₂ (torr): normoxic cortex, normal anaesthetized rats; for Ischaemic Cortex Increase in pO₂ (torr) (mean ± sem): both carotid arteries ligated 3 weeks previously, N=5
Description: 2. Effect of test compound on oxygen tension (pO₂) of rat cortex.
Male rats (280-350g) were anaesthetized with sodium-thio pentone (100 mg/kg i.p.). The arterial blood pressure was recorded from a femoral artery.
The cranium was opened with a trephine (0.6 mm) above the praecentral cortex. The dura mata was carefully removed and a multiwire oxygen sensitive electrode was placed on the cortex.
The electrode current was continuously recorded.
After a stabilisation period the test compound was administered. The change in the cortical pO₂, produced by compound administration, was calculated for each animal.
These measurements were performed in normal animals and in animals in which both carotid arteries had been ligated 3 weeks previously in order to induce cortical ischaemia.

[1] = tested on: Triethyltin-induced cerebral oedema; assay: Triethyltin-induced cerebral oedema in the rat; format: in vivo; conditions: twice daily for 5 days, Wistar rats intoxicated with triethyltin chloride 2 mg/kg
Description: 1. Triethyltin-induced cerebral oedema in the rat.
The cerebral oedema is induced by oral administrations repeated for 5 consecutive days - one administration per day - of triethyltin chloride at a dose of 2 mg/kg. The test compound is also administered orally twice daily as aqueous solution or suspension (1ml/100g body-weight); these administrations are given during the 5 days of intoxication with tin. Three groups of 10 male specific pathogen-free (SPF) Wistar rats of 280 ± 10g body-weight are used: • 1 control group • 1 group intoxicated with triethyltin • 1 group intoxicated with triethyltin and treated with the studied compound. The rats are killed on the evening of the fifth day; the brain is removed, weighed fresh and after desiccation to constant weight and the water content of each brain is calculated: [H₂O] = fresh weight - dry weight. [formula] The following are then calculated: • the mean water content (M ± Sm%) of each group; • the protection index P due to the administered compound: [formula] The significance is evaluated by the Mann-Whitney test.

For CC1(C)Nc2ccc(C#N)cc2[C@@H](N2CCCC2=O)[C@@H]1O (relative stereo) [Compound A, trans-2,2-dimethyl-6-cyano-4-(2-oxo-1-pyrrolidinyl)-1,2,3,4-tetrahydroquinolin-3-ol], which “Increase in pO₂ (torr)” value (rat cortex; 0.4 mg/kg i.v., N=3) is on record?
The value was 2.1 ± 2.0 torr.

And the “Ischaemic Cortex Increase in pO₂ (torr) (mean ± sem)” value (rat cortex; 0.5 mg/kg i.v.)?
The value was 0.9 ± 0.9 torr.

And the “Increase in pO₂ (torr)” value (rat cortex; 0.8 mg/kg i.v., N=2)?
Its value is 4.1 ± 0.9 torr.

And the “Ischaemic Cortex Increase in pO₂ (torr) (mean ± sem)” value (rat cortex; 1.0 mg/kg i.v.)?
Its value is 1.9 ± 1.9 torr.

And the “effect on pO₂ in the rat normoxic and chronic ischaemic cortex” value (rat cortex; summary in words of Table 2)?
The value was “increases pO₂”.

And the “% inhibition of cerebral oedema formation” value (shortened to “% inhibition”) ([1]; 2x2.5 mg/kg p.o.)?
The value was 30* %.

Which “% inhibition” value ([1]; 2x1 mg/kg p.o.) does the source give for CC1(C)C=C(N2CCCC2=O)c2cc(C#N)ccc2N1 [Compound C, 6-Cyano-2,2-dimethyl-4-(2-oxo-1-pyrrolidinyl)-1,2-dihydroquinoline] here?
Its value is 53.3** %.

And the “% inhibition” value ([1]; 2x12.5 mg/kg p.o.)?
Its value is 100** %.

For CC1(C)C=C(N2CCCC2=O)c2cc(Br)ccc2N1 [Compound B, 6-Bromo-2,2-dimethyl-4-(2-oxo-1-pyrrolidinyl)-1,2-dihydroquinoline], which “% inhibition” value ([1]; 2x12.5 mg/kg p.o.) is on record?
The value was 41.4** %.

And the “% inhibition” value ([1]; dosage cell empty in this row, p.o.)?
The value was 100** %.

From patent EP0214743B1, “Use of quinoline derivatives in the manufacture of medicaments for the treatment of cerebrovascular disorders and cerebral senility” (BEECHAM GROUP PLC, priority 1985, dated 1987)
